Each structure is given as a SMILES string.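 Five concentrations, 48 hours, 96-well plates. The concentration for 50% growth inhibition is given as GI50. TGI is the concentration that stops growth completely.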 Where only a bound is given, the exact number is not on record here.

Among the test systems are RXF 393 renal; HCT-15 colon; SK-MEL-28 melanoma; SK-OV-3 ovarian; MALME-3M melanoma; MDA-MB-435; OVCAR-3 ovarian; 786-0 renal; CCRF-CEM leukemia; BT-549 breast.
Holding throughout (assay): NCI anticancer screen, dose series, 48 h

In the case of `CNc1nc(OC)c2c(n1)[n+](C)cn2C`, the TGI in the assay on RXF 393 renal, in the assay with HCT-15 colon, with SK-MEL-28 melanoma, in the assay with SK-OV-3 ovarian, in the assay with MALME-3M melanoma and with MDA-MB-435 was greater than 100 µM each time. For the same compound, the TGI in the assay on OVCAR-3 ovarian, with 786-0 renal, with CCRF-CEM leukemia and with BT-549 breast was greater than 100 µM each time.
On to `O=C1CSC(c2cccc(Oc3ccccc3)c2)N1c1cc(Cl)ccc1Cl` (stereo unspecified), for which the TGI is 40.3 µM in the assay on RXF 393 renal; 58.6 µM in the assay on HCT-15 colon; greater than 100 µM in the assay with SK-MEL-28 melanoma; greater than 100 µM in the assay with SK-OV-3 ovarian; 57.6 µM with MALME-3M melanoma; 40.2 µM in the assay on MDA-MB-435. For the same compound, the TGI is 51.2 µM in the assay with OVCAR-3 ovarian, 36.9 µM in the assay on 786-0 renal, greater than 100 µM in the assay on CCRF-CEM leukemia and 35.6 µM in the assay on BT-549 breast.
As to `O=CC12CCCN1CCC2`, the TGI in the assay on RXF 393 renal, in the assay with HCT-15 colon, in the assay with SK-MEL-28 melanoma, with SK-OV-3 ovarian, with MALME-3M melanoma and in the assay on MDA-MB-435 was greater than 100 µM throughout. For the same compound, the TGI in the assay on OVCAR-3 ovarian, in the assay with 786-0 renal, in the assay on CCRF-CEM leukemia and with BT-549 breast was greater than 100 µM each time.
Regarding `C(/Cc1ccc2c(c1)OCO2)=N\NC1=NCCCCN1`, the TGI in the assay on RXF 393 renal, in the assay with HCT-15 colon, in the assay on SK-MEL-28 melanoma, in the assay with SK-OV-3 ovarian, in the assay on MALME-3M melanoma and in the assay on MDA-MB-435 was greater than 100 µM throughout. Also, the TGI with OVCAR-3 ovarian, with 786-0 renal, in the assay with CCRF-CEM leukemia and in the assay on BT-549 breast was greater than 100 µM in each case.
`Clc1cc2ncn(C3CCCO3)c2cc1Cl` (stereo unspecified): the TGI with RXF 393 renal, with HCT-15 colon, in the assay with SK-MEL-28 melanoma, in the assay with SK-OV-3 ovarian, with MALME-3M melanoma and in the assay on MDA-MB-435 was greater than 100 µM each time. The TGI in the assay with OVCAR-3 ovarian is greater than 100 µM; with 786-0 renal, greater than 100 µM; in the assay on CCRF-CEM leukemia it was greater than 100 µM; in the assay with BT-549 breast, 86.4 µM.
On to `N#Cc1c2c(c(Nc3ccc(Cl)cc3)n3c1nc1ccccc13)CCCC2`, for which the TGI in the assay on RXF 393 renal was greater than 85.1 µM; in the assay on HCT-15 colon, greater than 100 µM; in the assay with SK-MEL-28 melanoma, greater than 100 µM; in the assay on SK-OV-3 ovarian, greater than 100 µM; with MALME-3M melanoma, greater than 100 µM; in the assay on MDA-MB-435, greater than 100 µM. Further, the TGI in the assay on OVCAR-3 ovarian, in the assay with 786-0 renal, with CCRF-CEM leukemia and in the assay with BT-549 breast was greater than 100 µM each time.
Regarding `CN1Cc2c(ccc3c2OCO3)[C@@H]2[C@H](O)Cc3cc4c(cc3[C@@H]21)OCO4`, the TGI in the assay on RXF 393 renal is greater than 26.2 µM; in the assay on HCT-15 colon it was 6.74 µM; with SK-MEL-28 melanoma, greater than 100 µM; with SK-OV-3 ovarian, greater than 29.9 µM; in the assay with MALME-3M melanoma, greater than 100 µM; in the assay with MDA-MB-435, 2.53 µM. The TGI in the assay with OVCAR-3 ovarian was greater than 100 µM; in the assay with 786-0 renal it was greater than 75 µM; in the assay with CCRF-CEM leukemia it was greater than 29.2 µM; in the assay with BT-549 breast, greater than 100 µM.
Take `NNC(=O)COc1nc(-c2cccs2)nc2ccc(I)cc12`: the TGI was greater than 100 µM with RXF 393 renal; 56 µM in the assay with HCT-15 colon; 56.2 µM in the assay on SK-MEL-28 melanoma; 61 µM with SK-OV-3 ovarian; 45.1 µM in the assay on MALME-3M melanoma; 47 µM in the assay on MDA-MB-435. Moreover, the TGI amounted to 40.7 µM with OVCAR-3 ovarian, 78.8 µM in the assay on 786-0 renal, 88.4 µM in the assay on CCRF-CEM leukemia and 38.9 µM in the assay with BT-549 breast. For the same compound, the GI50 in the assay on CCRF-CEM leukemia was 20 µM.
For `O=C1c2sccc2C(=O)c2c(CO)csc21`, the TGI in the assay with RXF 393 renal was 3.22 µM; with HCT-15 colon it was 11.2 µM; in the assay with SK-MEL-28 melanoma, 38.3 µM; with SK-OV-3 ovarian it was 28.2 µM; with MALME-3M melanoma, 6.71 µM; in the assay on MDA-MB-435 it was 4.62 µM. Moreover, the TGI in the assay with OVCAR-3 ovarian was 6.3 µM; in the assay on 786-0 renal, 18.5 µM; with CCRF-CEM leukemia, greater than 51.6 µM; in the assay with BT-549 breast, 12 µM.
On to `CCCCCCCCCCCCCCCC(=O)OCC(COP(=O)(O)OCCNC(=O)CCSSc1ccccn1)OC(=O)CCCCCCCCCCCCCCC` (stereo unspecified), for which the TGI in the assay with RXF 393 renal, with HCT-15 colon, in the assay on SK-MEL-28 melanoma, in the assay on SK-OV-3 ovarian, with MALME-3M melanoma and in the assay with MDA-MB-435 was greater than 100 µM in each case. Moreover, the TGI in the assay with OVCAR-3 ovarian, in the assay with 786-0 renal, with CCRF-CEM leukemia and in the assay on BT-549 breast was greater than 100 µM throughout.
In the case of `CCOC(=O)c1c(SCCN(CC)CC)n(-c2ccccc2)c(=S)n(-c2ccccc2)c1=O`, the TGI in the assay with RXF 393 renal was 3.28 µM; in the assay with HCT-15 colon, 7.28 µM; in the assay with SK-MEL-28 melanoma, 11.9 µM; with SK-OV-3 ovarian it was 40.2 µM; with MALME-3M melanoma, 3.06 µM; in the assay with MDA-MB-435, 4.81 µM. For the same compound, the TGI was found to be 3.36 µM in the assay with OVCAR-3 ovarian, 3.17 µM in the assay on 786-0 renal, 3.34 µM in the assay on CCRF-CEM leukemia and 18.6 µM with BT-549 breast.
For the compound `COc1ccc(-c2cc(=O)c3cc(OC)c(OC)cc3[nH]2)cc1OC`, the TGI in the assay with RXF 393 renal, in the assay on HCT-15 colon, in the assay with SK-MEL-28 melanoma, in the assay with SK-OV-3 ovarian, with MALME-3M melanoma and with MDA-MB-435 was greater than 100 µM in each case. Besides, the TGI in the assay on OVCAR-3 ovarian, in the assay on 786-0 renal, with CCRF-CEM leukemia and in the assay with BT-549 breast was greater than 100 µM in each case.
For the compound `CCOC(=O)c1sc2nc(SC)nc3c2c1NCN3c1ccccc1Cl`, the TGI in the assay with RXF 393 renal was 73 µM; in the assay with HCT-15 colon it was greater than 100 µM; with SK-MEL-28 melanoma it was greater than 100 µM; with SK-OV-3 ovarian, greater than 100 µM; in the assay on MALME-3M melanoma, 74.4 µM; in the assay on MDA-MB-435, greater than 100 µM. Moreover, the TGI in the assay with OVCAR-3 ovarian, with 786-0 renal, in the assay with CCRF-CEM leukemia and with BT-549 breast was greater than 100 µM throughout.

The values above are taken from PubChem BioAssay (NCI).
